# Measured values reported in patent US5776944A, “7-(4-aminomethyl-3-methyloxyiminopyrroplidin-1-yl)-1-cyclopropyl-6-flu oro-4-oxo-1,4-dihydro-1,8-naphthyridine-3-carboxylic acid and the process for the preparation thereof” (LG Chemical Ltd., priority 1994, dated 1998).
# Where two headings read alike, the source gives them in different places.
# How the values were obtained:
# [1] = test system: Staphylococcus aureus giorgio; test: In vitro antibacterial activity (MIC, agar dilution), Biological Example 1; type: cell-based; conditions: 18 h, Table 25, read-out: Minimum Inhibitory Concentration
# [2] = test system: Staphylococcus epidermidis 178; test: as above; type: cell-based; conditions: 18 h; Staphylococcus epidermidis 178, Table 25; read-out: Minimum Inhibitory Concentration
# [3] = test system: Enterobacter cloacae 1194E; test: microbe, parasite or virus in culture; type: cell-based; conditions: 18 h, read-out: Minimum Inhibitory Concentration
# Enterobacter cloacae P99 [4] = test: microbe, parasite or virus in culture; type: cell-based; conditions: P99, 18 h, read-out: Minimum Inhibitory Concentration
# Escherichia coli 10536 [5] = test: In vitro antibacterial activity (MIC, agar dilution), Biological Example 1; type: cell-based; conditions: 18 h; Escherichia coli 10536, Table 25; read-out: Minimum Inhibitory Concentration
# Staphylococcus aureus 77 [6] = test: as above; type: cell-based; conditions: 18 h; Staphylococcus aureus 77, Table 25; read-out: Minimum Inhibitory Concentration
# [7] = test system: Pseudomonas aeruginosa 10145; test: as above; type: cell-based; conditions: 18 h; Pseudomonas aeruginosa 10145, Table 25; read-out: Minimum Inhibitory Concentration
# Escherichia coli 851E [8] = test: as above; type: cell-based; conditions: 18 h, Table 25, read-out: Minimum Inhibitory Concentration
# [9] = test system: Citrobacter diversus 2046E; test: as above; type: cell-based; conditions: Citrobacter koseri, 18 h, Table 25, read-out: Minimum Inhibitory Concentration
# [10] = test system: Escherichia coli TEM9 2639E; test: microbe, parasite or virus in culture; type: cell-based; conditions: TEM92639E, 18 h, read-out: Minimum Inhibitory Concentration
# Escherichia coli 3190Y [11] = test: In vitro antibacterial activity (MIC, agar dilution), Biological Example 1; type: cell-based; conditions: 18 h, Table 25, read-out: Minimum Inhibitory Concentration
# [12] = test system: Acinetobacter calcoaceticus 15473; test: as above; type: cell-based; conditions: 18 h; Acinetobacter calcoaceticus 15473, Table 25; read-out: Minimum Inhibitory Concentration
# [13] = test system: Pseudomonas aeruginosa 1912E; test: as above; type: cell-based; conditions: 18 h; Pseudomonas aeruginosa 1912E, Table 25; read-out: Minimum Inhibitory Concentration
# [14] = test system: Staphylococcus aureus 241; test: as above; type: cell-based; conditions: 18 h; Staphylococcus aureus 241, Table 25; read-out: Minimum Inhibitory Concentration
# [15] = test system: Escherichia coli TEM3 3455E; test: microbe, parasite or virus in culture; type: cell-based; conditions: TEM33455E, 18 h, read-out: Minimum Inhibitory Concentration
# [16] = test system: Klebsiella aerogenes 1082E; test: In vitro antibacterial activity (MIC, agar dilution), Biological Example 1; type: cell-based; conditions: 18 h, Table 25, read-out: Minimum Inhibitory Concentration
# Micrococcus luteus 9341 [17] = test: as above; type: cell-based; conditions: 18 h; Micrococcus luteus 9341, Table 25; read-out: Minimum Inhibitory Concentration
# [18] = test system: Salmonella typimurium 14028; test: as above; type: cell-based; conditions: 18 h; Salmonella typimurium 14028, Table 25; read-out: Minimum Inhibitory Concentration
# [19] = test system: Staphylococcus epidermidis 887E; test: as above; type: cell-based; conditions: 18 h, Table 25, read-out: Minimum Inhibitory Concentration
# Acute oral toxicity test = conditions: in vivo, ICR male mouse, 7 days
# Description: To determine the acute oral toxicity of the compounds prepared in Examples 1 and 34, the test solution containing the compounds in various concentrations were orally administered to ICR male mouse in an amount of 10 ml per kg of body weight. For 7 days after administration, the lethality and the conditions of test mouse were observed, from which LD50 value (mg/kg), was calculated.
# Bacillus subtilis 6633 [20] = test: In vitro antibacterial activity (MIC, agar dilution), Biological Example 1; type: cell-based; conditions: 18 h; Bacillus subtilis 6633, Table 25; read-out: Minimum Inhibitory Concentration
# [21] = test system: Staphylococcus aureus 6538p; test: as above; type: cell-based; conditions: 18 h, Table 25, read-out: Minimum Inhibitory Concentration
# [22] = test system: Klebsiella aerogenes 1976E; test: as above; type: cell-based; conditions: 18 h, Table 25, read-out: Minimum Inhibitory Concentration
# [23] = test system: Escherichia coli TEM5 3739E; test: microbe, parasite or virus in culture; type: cell-based; conditions: TEM53739E, 18 h, read-out: Minimum Inhibitory Concentration
# [24] = test system: Streptococcus faecalis 29212; test: In vitro antibacterial activity (MIC, agar dilution), Biological Example 1; type: cell-based; conditions: Enterococcus faecalis, 18 h; Streptococcus faecalis 29212, Table 25; read-out: Minimum Inhibitory Concentration
# [25] = test system: Citrobacter diversus 2046E; test: In vitro antibacterial activity (MIC, agar medium dilution), Biological Example 4; type: cell-based; conditions: Citrobacter koseri, 18 h, Table 31, read-out: Minimum Inhibitory Concentration: MIC
# [26] = test system: Pseudomonas aeruginosa 1912E; test: as above; type: cell-based; conditions: 18 h, Table 31, read-out: Minimum Inhibitory Concentration: MIC
# [27] = test system: Pseudomonas aeruginosa 6065Y; test: as above; type: cell-based; conditions: 18 h, Table 31, read-out: Minimum Inhibitory Concentration: MIC
# Description: (§1) In order to determine the antibacterial activitiers of the E- and Z-isomner of the compound 180 which were separated in Example 203, and of 7- (4-aminomethyl-3-methyloxylminopyrrolidin-1-yl)-1-cyclopropyl-6-fluoro-4-oxo-1,4-dihydro-1,8-naphthyridine-3-carboxylic acid methanesulfonate prepared in Example 204, in vitro antibacterial activities of them were measured using agar medium dilution method. The results were as described in the following Tables 31 and 32.
# Seratis marsecence 1826E = test: as above; type: cell-based; conditions: 18 h, Table 31, read-out: Minimum Inhibitory Concentration: MIC
# Description: as §1
# Micrococcus luteus 9341 [28] = test: as above; type: cell-based; conditions: 18 h; Micrococcus luteus 9341, Table 31; read-out: Minimum Inhibitory Concentration: MIC
# [29] = test system: Klebsiella aerogenes 1976E; test: as above; type: cell-based; conditions: 18 h, Table 31, read-out: Minimum Inhibitory Concentration: MIC
# [30] = test system: Klebsiella aerogenes 1082E; test: as above; type: cell-based; conditions: 18 h, Table 31, read-out: Minimum Inhibitory Concentration: MIC
# Escherichia coli 10536 [31] = test: as above; type: cell-based; conditions: Escherichia coli, 10536, 18 h, Escherichia coli 10536, Table 31; read-out: Minimum Inhibitory Concentration: MIC
# [32] = test system: Staphylococcus aureus giorgio; test: as above; type: cell-based; conditions: 18 h, Table 31, read-out: Minimum Inhibitory Concentration: MIC
# [33] = test system: Streptococcus faecalis 29212; test: as above; type: cell-based; conditions: Enterococcus faecalis, 29212, 18 h, Streptococcus faecalis 29212, Table 31; read-out: Minimum Inhibitory Concentration: MIC
# Escherichia coli 851E [34] = test: as above; type: cell-based; conditions: 18 h, Table 31, read-out: Minimum Inhibitory Concentration: MIC
# Escherichia coli 3190Y [35] = test: as above; type: cell-based; conditions: 18 h, Table 31, read-out: Minimum Inhibitory Concentration: MIC
# Proteus vulgaris 6059 = test: as above; type: cell-based; conditions: 18 h; Proteus vulgaris 6059, Table 31; read-out: Minimum Inhibitory Concentration: MIC
# [36] = test system: Escherichia coli TEM9 2639E; test: as above; type: cell-based; conditions: TEM92639E, 18 h, read-out: Minimum Inhibitory Concentration: MIC
# [37] = test system: Acinetobacter calcoaceticus 15473; test: as above; type: cell-based; conditions: 18 h; Acinetobacter calcoaceticus 15473, Table 31; read-out: Minimum Inhibitory Concentration: MIC
# [38] = test system: Staphylococcus aureus 6538p; test: as above; type: cell-based; conditions: 18 h, Table 31, read-out: Minimum Inhibitory Concentration: MIC
# [39] = test system: Staphylococcus epidermidis 178; test: as above; type: cell-based; conditions: 18 h; Staphylococcus epidermidis 178, Table 31; read-out: Minimum Inhibitory Concentration: MIC
# [40] = test system: Escherichia coli TEM3 3455E; test: as above; type: cell-based; conditions: TEM33455E, 18 h, read-out: Minimum Inhibitory Concentration: MIC, Escherichia coli TEM3 3455E, Table 31
# [41] = test system: Salmonella thypimurium 14028; test: as above; type: cell-based; conditions: 18 h; Salmonella thypimurium 14028, Table 31; read-out: Minimum Inhibitory Concentration: MIC
# test strains = test: In vitro antibacterial activity, overall finding, Biological Example 4; type: cell-based; conditions: Tables 31 and 32
# Description: as §1
# Enterobacter cloacae P99 [42] = test: microbe, parasite or virus in culture; type: cell-based; conditions: P99, 18 h, read-out: Minimum Inhibitory Concentration: MIC
# Bacillus subtilis 6633 [43] = test: In vitro antibacterial activity (MIC, agar medium dilution), Biological Example 4; type: cell-based; conditions: 18 h; Bacillus subtilis 6633, Table 31; read-out: Minimum Inhibitory Concentration: MIC
# Staphylococcus aureus 77 [44] = test: as above; type: cell-based; conditions: 18 h; Staphylococcus aureus 77, Table 31; read-out: Minimum Inhibitory Concentration: MIC
# [45] = test system: Enterobacter cloacae 1194E; test: microbe, parasite or virus in culture; type: cell-based; conditions: 18 h, read-out: Minimum Inhibitory Concentration: MIC
# [46] = test system: Staphylococcus aureus 241; test: In vitro antibacterial activity (MIC, agar medium dilution), Biological Example 4; type: cell-based; conditions: Staphylococcus aureus, 241, 18 h, Staphylococcus aureus 241, Table 31; read-out: Minimum Inhibitory Concentration: MIC
# [47] = test system: Pseudomonas aeruginosa 10145; test: as above; type: cell-based; conditions: Pseudomonas aeruginosa, 10145, 18 h, Pseudomonas aeruginosa 10145, Table 31; read-out: Minimum Inhibitory Concentration: MIC
# [48] = test system: Staphylococcus epidermidis 887E; test: as above; type: cell-based; conditions: 18 h, Staphylococcus epidermidis 887E, Table 31, read-out: Minimum Inhibitory Concentration: MIC
# [49] = test system: Escherichia coli TEM5 3739E; test: as above; type: cell-based; conditions: TEM53739E, 18 h, read-out: Minimum Inhibitory Concentration: MIC
smiles,measurement,setting,value
"NCC1CN(c2c(F)cc3c(=O)c(C(=O)O)cn(C4CC4)c3c2Cl)CC1=NOCc1ccccc1 (centres unmarked) [Example 34, 7-(4-aminomethyl-3-benzyoxyimino-pyrrolidin-1-yl)-8-chloro-1-cyclopropyl-6-fluoro-1,4-dihydro-4-oxo-guinoline-3-carboxylic acid]",MIC,[1],≤ 0.008 µg/mL
same,MIC,[2],2 µg/mL
same,MIC,[3],0.25 µg/mL
same,MIC,Enterobacter cloacae P99 [4],0.063 µg/mL
same,MIC,Escherichia coli 10536 [5],0.016 µg/mL
same,MIC,Staphylococcus aureus 77 [6],≤ 0.008 µg/mL
same,MIC,[7],2 µg/mL
same,MIC,Escherichia coli 851E [8],0.13 µg/mL
same,MIC,[9],0.25 µg/mL
same,MIC,[10],0.13 µg/mL
same,MIC,Escherichia coli 3190Y [11],≤ 0.008 µg/mL
same,MIC,[12],0.031 µg/mL
same,MIC,[13],0.5 µg/mL
same,MIC,[14],4 µg/mL
same,MIC,[15],1 µg/mL
same,MIC,[16],0.031 µg/mL
same,MIC,Micrococcus luteus 9341 [17],0.13 µg/mL
same,MIC,[18],0.063 µg/mL
same,MIC,[19],≤ 0.008 µg/mL
same,LD50 at 168 h,Acute oral toxicity test,> 3000 mg/kg
same,MIC,Bacillus subtilis 6633 [20],≤ 0.008 µg/mL
same,MIC,[21],≤ 0.008 µg/mL
same,MIC,[22],0.5 µg/mL
same,MIC,[23],0.5 µg/mL
same,MIC,[24],0.13 µg/mL
CO/N=C1\CN(c2nc3c(cc2F)c(=O)c(C(=O)O)cn3C2CC2)CC1CN (stereo not drawn) [Z-isomer],MIC,[25],0.031 µg/mL
same,MIC,[26],0.5 µg/mL
same,MIC,[27],8 µg/mL
same,MIC,Seratis marsecence 1826E,0.25 µg/mL
same,MIC,Micrococcus luteus 9341 [28],0.13 µg/mL
same,MIC,[29],0.063 µg/mL
same,MIC,[30],0.031 µg/mL
same,MIC,Escherichia coli 10536 [31],≤ 0.008 µg/mL
same,MIC,[32],≤ 0.008 µg/mL
same,MIC,[33],0.063 µg/mL
same,MIC,Escherichia coli 851E [34],0.016 µg/mL
same,MIC,Escherichia coli 3190Y [35],≤ 0.008 µg/mL
same,MIC,Proteus vulgaris 6059,0.25 µg/mL
same,MIC,[36],0.031 µg/mL
same,MIC,[37],0.063 µg/mL
same,MIC,[38],≤ 0.008 µg/mL
same,MIC,[39],4 µg/mL
same,MIC,[40],0.13 µg/mL
same,MIC,[41],0.031 µg/mL
same,antibacterial activity,test strains,superior antibacterial activity to the E-isomer
same,MIC,Enterobacter cloacae P99 [42],≤ 0.008 µg/mL
same,MIC,Bacillus subtilis 6633 [43],≤ 0.008 µg/mL
same,MIC,Staphylococcus aureus 77 [44],0.031 µg/mL
same,MIC,[45],0.031 µg/mL
same,MIC,[46],4 µg/mL
same,MIC,[47],0.5 µg/mL
same,MIC,[48],≤ 0.008 µg/mL
same,MIC,[49],0.13 µg/mL
